Laboratory results from ChEMBL document CHEMBL4038300, “Return of D4 Dopamine Receptor Antagonists in Drug Discovery” (J Med Chem, 2017).

How the values were obtained:
[1] = Inhibition of human dopamine D4.4 receptor
[2] = target: 5-hydroxytryptamine receptor 2A (Homo sapiens, UniProt P28223); test: Inhibition of serotonin 5-HT2 receptor (unknown origin); settings: concentration not given here
[3] = target: 5-hydroxytryptamine receptor 2C (Homo sapiens) (UniProt P28335); test: Inhibition of serotonin 5-HT2C receptor (unknown origin); settings: concentration not given here
Histamine H1 receptor = Histamine H1 receptor (Homo sapiens, UniProt P35367); test: Inhibition of histamine H1 receptor (unknown origin); settings: concentration not given here
[4] = target: Adrenergic receptor alpha-1 (Homo sapiens) (UniProt P35348+P25100+P35368); test: Inhibition of alpha1 adrenergic receptor (unknown origin); settings: concentration not given here
[5] = target: Adrenergic receptor alpha-2 (Homo sapiens) (UniProt P08913+P18825+P18089); test: Inhibition of alpha2 adrenergic receptor (unknown origin); settings: concentration not given here
[6] = target: Glutamate [NMDA] receptor (Homo sapiens) (UniProt Q05586+Q12879+Q13224+O15399+O60391+Q14957+Q8TCU5); test: Inhibition of NMDA receptor (unknown origin); settings: concentration not given here
[7] = target: Neuropeptide Y receptor type 1 (Homo sapiens) (UniProt P25929); test: Inhibition of NPY1 receptor (unknown origin); settings: concentration not given here
[8] = target: Neuropeptide Y receptor type 2 (Homo sapiens) (UniProt P49146); test: Inhibition of NPY2 receptor (unknown origin); settings: concentration not given here
Homo sapiens = species: Homo sapiens; test: Inhibition of beta-adrenergic receptor (unknown origin); settings: concentration not given here
[9] = target: Histamine H3 receptor (Homo sapiens) (UniProt Q9Y5N1); test: Inhibition of histamine H3 receptor (unknown origin); settings: concentration not given here
[10] = Inhibition of human dopamine D4.2 receptor
[11] = Inhibition of human dopamine D4.7 receptor
D(1A) dopamine receptor = D(1A) dopamine receptor (Homo sapiens, UniProt P21728); test: Inhibition of dopamine D1 receptor (unknown origin) at 10 uM
D(3) dopamine receptor [12] = target: T1, D(3) dopamine receptor (Homo sapiens, UniProt P35462); test: Inhibition of dopamine D3 receptor (unknown origin) at 10 uM
D(1B) dopamine receptor = D(1B) dopamine receptor (Homo sapiens, UniProt P21918); test: Inhibition of dopamine D5 receptor (unknown origin) at 10 uM
D(2) dopamine receptor = D(2) dopamine receptor (Homo sapiens, UniProt P14416); test: Inhibition of human dopamine D2 receptor
D(3) dopamine receptor [13] = target: T1, D(3) dopamine receptor; test: Inhibition of human dopamine D3 receptor
D(4) dopamine receptor = target: T2, D(4) dopamine receptor (Homo sapiens, UniProt P21917); test: Inhibition of human dopamine D4 receptor
T2 sequence (P21917 whole entry): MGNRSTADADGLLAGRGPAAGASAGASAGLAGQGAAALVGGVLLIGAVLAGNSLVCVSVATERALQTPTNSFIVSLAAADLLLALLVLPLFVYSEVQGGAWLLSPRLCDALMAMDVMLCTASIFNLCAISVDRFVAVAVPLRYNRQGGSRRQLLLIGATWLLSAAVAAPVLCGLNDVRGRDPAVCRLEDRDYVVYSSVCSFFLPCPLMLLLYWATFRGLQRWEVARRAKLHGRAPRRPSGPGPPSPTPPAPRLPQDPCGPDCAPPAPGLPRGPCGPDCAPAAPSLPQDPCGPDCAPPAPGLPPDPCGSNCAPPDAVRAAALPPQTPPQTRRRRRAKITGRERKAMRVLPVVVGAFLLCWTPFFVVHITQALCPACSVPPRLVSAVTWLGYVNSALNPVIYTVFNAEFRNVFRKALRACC

[14] = Oral bioavailability in rat at 20 mg/kg; type: ADME, organism-based; settings: in vivo

T1 sequence (P35462 whole entry): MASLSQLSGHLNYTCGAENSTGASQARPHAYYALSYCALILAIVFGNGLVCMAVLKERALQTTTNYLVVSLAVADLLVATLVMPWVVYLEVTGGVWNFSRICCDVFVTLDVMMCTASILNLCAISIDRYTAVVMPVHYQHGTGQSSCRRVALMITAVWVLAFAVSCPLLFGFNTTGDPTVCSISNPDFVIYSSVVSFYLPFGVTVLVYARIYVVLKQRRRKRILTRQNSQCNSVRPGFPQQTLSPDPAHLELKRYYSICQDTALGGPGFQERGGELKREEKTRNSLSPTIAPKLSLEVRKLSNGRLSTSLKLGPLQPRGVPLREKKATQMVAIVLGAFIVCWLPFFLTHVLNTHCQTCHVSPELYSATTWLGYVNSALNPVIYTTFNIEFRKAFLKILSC
Sequence of Histamine H3 receptor (Homo sapiens) (Q9Y5N1 whole entry): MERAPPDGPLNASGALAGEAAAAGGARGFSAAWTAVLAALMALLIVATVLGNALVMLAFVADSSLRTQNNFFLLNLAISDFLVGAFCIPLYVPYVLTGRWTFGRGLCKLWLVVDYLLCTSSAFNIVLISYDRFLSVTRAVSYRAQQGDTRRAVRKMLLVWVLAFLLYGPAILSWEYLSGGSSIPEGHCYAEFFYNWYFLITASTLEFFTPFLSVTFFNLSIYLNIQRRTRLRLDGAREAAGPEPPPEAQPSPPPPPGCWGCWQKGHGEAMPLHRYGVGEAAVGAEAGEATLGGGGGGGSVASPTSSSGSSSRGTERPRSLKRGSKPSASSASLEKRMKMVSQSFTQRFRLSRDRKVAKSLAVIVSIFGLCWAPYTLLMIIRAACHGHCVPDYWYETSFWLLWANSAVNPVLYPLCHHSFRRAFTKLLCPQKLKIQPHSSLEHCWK
Sequence of D(2) dopamine receptor (P14416 whole entry): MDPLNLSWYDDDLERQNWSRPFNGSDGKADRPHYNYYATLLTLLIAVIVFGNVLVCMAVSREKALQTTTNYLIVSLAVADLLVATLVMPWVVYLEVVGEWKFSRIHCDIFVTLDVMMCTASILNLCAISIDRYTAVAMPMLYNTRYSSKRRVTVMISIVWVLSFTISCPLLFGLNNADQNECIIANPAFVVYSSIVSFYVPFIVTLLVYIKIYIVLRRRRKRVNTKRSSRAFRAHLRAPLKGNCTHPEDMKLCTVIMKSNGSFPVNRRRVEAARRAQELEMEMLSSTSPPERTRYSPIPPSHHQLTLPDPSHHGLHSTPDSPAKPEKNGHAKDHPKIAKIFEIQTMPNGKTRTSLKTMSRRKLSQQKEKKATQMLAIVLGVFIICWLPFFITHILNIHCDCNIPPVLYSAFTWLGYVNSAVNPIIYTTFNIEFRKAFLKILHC
Sequence of 5-hydroxytryptamine receptor 2C (Homo sapiens) (P28335 whole entry): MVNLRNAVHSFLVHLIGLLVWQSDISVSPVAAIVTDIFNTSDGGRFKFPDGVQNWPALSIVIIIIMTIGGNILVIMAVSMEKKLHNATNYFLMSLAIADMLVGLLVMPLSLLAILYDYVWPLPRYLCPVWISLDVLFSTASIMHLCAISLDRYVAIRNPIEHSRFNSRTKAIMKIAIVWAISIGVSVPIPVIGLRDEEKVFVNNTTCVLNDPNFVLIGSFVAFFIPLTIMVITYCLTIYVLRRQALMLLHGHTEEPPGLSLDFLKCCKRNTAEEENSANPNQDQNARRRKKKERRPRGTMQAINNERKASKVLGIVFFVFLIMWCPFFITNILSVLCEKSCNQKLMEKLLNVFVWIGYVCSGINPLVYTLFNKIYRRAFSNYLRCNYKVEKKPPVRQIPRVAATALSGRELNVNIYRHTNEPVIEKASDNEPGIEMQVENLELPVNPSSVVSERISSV
Sequence of Neuropeptide Y receptor type 1 (Homo sapiens) (P25929 whole entry): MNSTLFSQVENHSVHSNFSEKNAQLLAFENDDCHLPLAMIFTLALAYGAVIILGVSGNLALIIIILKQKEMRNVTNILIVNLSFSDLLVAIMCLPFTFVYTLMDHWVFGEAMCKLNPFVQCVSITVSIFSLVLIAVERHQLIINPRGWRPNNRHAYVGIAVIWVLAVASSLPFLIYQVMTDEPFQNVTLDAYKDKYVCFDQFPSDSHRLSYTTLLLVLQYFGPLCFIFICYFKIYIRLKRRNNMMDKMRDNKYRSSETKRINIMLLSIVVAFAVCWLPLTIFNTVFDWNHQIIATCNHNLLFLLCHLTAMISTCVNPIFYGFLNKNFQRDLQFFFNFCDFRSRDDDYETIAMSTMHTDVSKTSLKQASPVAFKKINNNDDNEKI
Sequence of 5-hydroxytryptamine receptor 2A (P28223 whole entry): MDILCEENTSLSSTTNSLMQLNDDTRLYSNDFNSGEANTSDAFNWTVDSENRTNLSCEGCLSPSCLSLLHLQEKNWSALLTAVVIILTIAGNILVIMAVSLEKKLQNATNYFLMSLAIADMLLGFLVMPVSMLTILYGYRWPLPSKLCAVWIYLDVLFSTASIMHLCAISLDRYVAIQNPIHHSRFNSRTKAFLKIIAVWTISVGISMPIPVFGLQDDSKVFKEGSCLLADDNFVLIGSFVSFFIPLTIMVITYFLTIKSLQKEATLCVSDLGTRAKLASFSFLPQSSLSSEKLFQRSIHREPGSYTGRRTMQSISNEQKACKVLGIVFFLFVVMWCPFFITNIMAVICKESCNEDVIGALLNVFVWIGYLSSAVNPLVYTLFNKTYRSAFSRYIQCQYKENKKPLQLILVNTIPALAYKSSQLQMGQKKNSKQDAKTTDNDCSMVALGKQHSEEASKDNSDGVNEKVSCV
Sequence of Neuropeptide Y receptor type 2 (Homo sapiens) (P49146 whole entry): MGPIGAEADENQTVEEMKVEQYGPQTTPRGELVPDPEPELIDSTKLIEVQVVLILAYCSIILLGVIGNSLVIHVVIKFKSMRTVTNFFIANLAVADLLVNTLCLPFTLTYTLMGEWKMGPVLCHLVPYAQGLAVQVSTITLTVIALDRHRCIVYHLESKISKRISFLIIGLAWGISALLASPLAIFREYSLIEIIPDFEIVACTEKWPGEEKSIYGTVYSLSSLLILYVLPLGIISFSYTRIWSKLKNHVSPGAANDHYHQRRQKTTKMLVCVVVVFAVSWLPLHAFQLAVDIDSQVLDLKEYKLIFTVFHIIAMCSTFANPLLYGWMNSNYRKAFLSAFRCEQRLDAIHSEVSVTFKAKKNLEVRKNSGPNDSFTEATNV
Sequence of D(1A) dopamine receptor (P21728 whole entry): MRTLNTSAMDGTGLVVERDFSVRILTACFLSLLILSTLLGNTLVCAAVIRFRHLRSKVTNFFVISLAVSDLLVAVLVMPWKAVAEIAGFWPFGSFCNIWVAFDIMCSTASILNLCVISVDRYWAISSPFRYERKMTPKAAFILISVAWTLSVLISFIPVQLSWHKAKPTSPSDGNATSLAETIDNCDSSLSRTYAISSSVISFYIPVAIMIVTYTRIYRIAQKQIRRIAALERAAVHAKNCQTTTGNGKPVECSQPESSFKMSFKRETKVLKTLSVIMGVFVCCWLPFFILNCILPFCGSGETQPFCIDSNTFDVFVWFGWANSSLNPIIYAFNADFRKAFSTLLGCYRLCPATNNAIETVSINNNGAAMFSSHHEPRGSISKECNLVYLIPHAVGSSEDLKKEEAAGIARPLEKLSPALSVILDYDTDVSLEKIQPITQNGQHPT
Sequence of Histamine H1 receptor (P35367 whole entry): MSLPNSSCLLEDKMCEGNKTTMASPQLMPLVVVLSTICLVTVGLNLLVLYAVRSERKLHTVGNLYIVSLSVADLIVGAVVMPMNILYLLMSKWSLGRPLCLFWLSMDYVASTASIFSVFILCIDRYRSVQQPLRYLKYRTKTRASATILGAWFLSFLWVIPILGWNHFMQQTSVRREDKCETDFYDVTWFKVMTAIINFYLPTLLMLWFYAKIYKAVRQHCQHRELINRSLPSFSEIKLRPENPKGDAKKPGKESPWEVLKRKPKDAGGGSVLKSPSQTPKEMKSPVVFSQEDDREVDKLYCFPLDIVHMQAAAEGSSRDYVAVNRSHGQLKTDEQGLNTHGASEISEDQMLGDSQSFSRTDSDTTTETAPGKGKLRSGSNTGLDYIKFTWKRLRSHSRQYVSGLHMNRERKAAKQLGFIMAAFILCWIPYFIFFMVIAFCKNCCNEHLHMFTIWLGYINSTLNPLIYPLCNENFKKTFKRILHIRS
Sequence of D(1B) dopamine receptor (P21918 whole entry): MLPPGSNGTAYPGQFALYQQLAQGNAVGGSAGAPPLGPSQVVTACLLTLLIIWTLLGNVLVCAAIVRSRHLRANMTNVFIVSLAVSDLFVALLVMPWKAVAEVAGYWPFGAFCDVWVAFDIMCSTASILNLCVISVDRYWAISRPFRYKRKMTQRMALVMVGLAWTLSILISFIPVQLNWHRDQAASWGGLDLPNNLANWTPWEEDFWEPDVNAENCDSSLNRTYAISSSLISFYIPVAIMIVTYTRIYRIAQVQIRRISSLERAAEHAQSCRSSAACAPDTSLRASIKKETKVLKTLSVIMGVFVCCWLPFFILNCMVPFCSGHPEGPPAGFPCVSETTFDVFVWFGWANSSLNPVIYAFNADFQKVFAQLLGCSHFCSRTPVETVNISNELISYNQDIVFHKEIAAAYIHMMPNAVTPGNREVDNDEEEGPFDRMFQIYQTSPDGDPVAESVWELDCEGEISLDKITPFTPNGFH

Ki [1] | inhibition [2] | inhibition [3] | inhibition (Histamine H1 receptor) | inhibition [4] | inhibition [5] | inhibition [6] | inhibition [7] | inhibition [8] | inhibition (Homo sapiens) | inhibition [9] | Ki [10] | Ki [11] | inhibition (D(1A) dopamine receptor) | inhibition (D(3) dopamine receptor [12]) | inhibition (D(1B) dopamine receptor) | Ki (D(2) dopamine receptor) | Ki (D(3) dopamine receptor [13]) | Ki (D(4) dopamine receptor) | bioavailability [14] | Compound
2.2 nM | < 50% | < 50% | < 50% | < 50% | < 50% | < 50% | < 50% | < 50% | < 50% | < 50% | 4.2 nM | 2.1 nM | < 50% | < 50% | < 50% | – | – | – | – | c1ccc(-c2nc(CN3CCN(c4ncccn4)CC3)c[nH]2)cc1
– | – | – | – | – | – | – | – | – | – | – | – | – | – | – | – | 400 nM | 1480 nM | 5.6 nM | > 40% | c1ccc(OCC2CN(Cc3c[nH]c4ccccc34)CCO2)cc1 (stereo not given)
